The source made the active and inactive calls.
Experiments:
[1] = target: T1, Dual specificity protein phosphatase 6 (Rattus norvegicus, UniProt Q64346)
T1 sequence (Q64346 whole entry): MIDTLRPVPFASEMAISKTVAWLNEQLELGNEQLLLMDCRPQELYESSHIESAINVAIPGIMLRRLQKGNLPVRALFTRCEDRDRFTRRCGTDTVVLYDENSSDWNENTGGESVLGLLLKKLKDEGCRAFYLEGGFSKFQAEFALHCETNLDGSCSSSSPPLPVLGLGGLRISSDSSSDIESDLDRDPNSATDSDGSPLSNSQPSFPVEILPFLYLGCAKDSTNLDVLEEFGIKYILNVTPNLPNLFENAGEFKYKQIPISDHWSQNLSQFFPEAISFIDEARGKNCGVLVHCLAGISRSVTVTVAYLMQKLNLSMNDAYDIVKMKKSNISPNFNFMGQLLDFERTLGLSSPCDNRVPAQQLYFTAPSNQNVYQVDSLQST

[2] = target: Glyceraldehyde-3-phosphate dehydrogenase (Homo sapiens, UniProt P04406)
[3] = target: T2, Tyrosine-protein phosphatase non-receptor type 7 (Homo sapiens, UniProt P35236); assay type: functional
T2 sequence (P35236 whole entry): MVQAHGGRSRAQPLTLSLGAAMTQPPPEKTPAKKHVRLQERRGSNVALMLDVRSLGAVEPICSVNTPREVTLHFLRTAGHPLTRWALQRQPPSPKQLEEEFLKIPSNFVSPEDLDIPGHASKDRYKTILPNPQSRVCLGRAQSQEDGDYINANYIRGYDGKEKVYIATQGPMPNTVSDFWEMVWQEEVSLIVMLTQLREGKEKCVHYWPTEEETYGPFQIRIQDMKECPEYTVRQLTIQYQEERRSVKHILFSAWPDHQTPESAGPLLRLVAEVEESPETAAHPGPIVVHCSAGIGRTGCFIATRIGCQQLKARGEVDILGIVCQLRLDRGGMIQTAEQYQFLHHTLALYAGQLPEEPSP

[4] = target: T1, Dual specificity protein phosphatase 6; assay type: functional
Vero [5] = assay: cells; assay type: functional, cell-based; details: Chlorocebus sabaeus
Vero [6] = assay: cells; assay type: functional; details: Chlorocebus sabaeus
Cytochrome P450 3A4 = Cytochrome P450 3A4 (Homo sapiens, UniProt P08684);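 further: CYP3A4 tested as one member of a cytochrome P450 panel screen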
Cytochrome P450 1A2 = target: T3, Cytochrome P450 1A2 (Homo sapiens, UniProt P05177);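 further: PubChem cytochrome P450 panel assay, CYP1A2 panel member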
T3 sequence (P05177 whole entry): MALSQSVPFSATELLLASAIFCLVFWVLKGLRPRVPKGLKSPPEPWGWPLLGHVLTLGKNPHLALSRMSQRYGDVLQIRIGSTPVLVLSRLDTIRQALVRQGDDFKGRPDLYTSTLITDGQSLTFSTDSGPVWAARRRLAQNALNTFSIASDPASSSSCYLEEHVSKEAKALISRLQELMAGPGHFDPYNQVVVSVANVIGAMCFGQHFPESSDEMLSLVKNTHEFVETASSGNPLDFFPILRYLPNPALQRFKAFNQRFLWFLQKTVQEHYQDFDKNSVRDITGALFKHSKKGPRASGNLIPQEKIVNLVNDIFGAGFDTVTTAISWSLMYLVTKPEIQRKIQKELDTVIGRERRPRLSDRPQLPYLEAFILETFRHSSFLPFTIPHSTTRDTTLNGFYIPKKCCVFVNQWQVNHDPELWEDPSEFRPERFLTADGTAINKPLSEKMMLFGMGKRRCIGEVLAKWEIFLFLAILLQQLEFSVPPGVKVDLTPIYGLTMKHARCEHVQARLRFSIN

[7] = C. albicans growth with fluconazole, confirmation, fluorescence, retest (AID 2467); assay type: functional, cell-based
[8] = target: ATP-dependent molecular chaperone HSP82 (Candida albicans (strain WO-1) (Yeast), UniProt C4YTQ8); assay: loss of DOC-induced GRE-beta-galactosidase reporter signal, dose response, Hsp90 inhibitor project, S. cerevisiae, luminescence (AID 2400); assay type: functional, cell-based;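 further: beta-galactosidase luminescence from glucocorticoid response element reporter as proxy for Hsp90 function; inhibitor potency where signal loss means Hsp90 inhibition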
[9] = target: T4, Serine/threonine-protein phosphatase (Candida dubliniensis (strain CD36 / CBS 7987 / NCPF 3949 / NRRLY-17841) (Yeast), UniProt B9W6M3); assay: calcineurin pathway inhibitors in yeast reporter, dose response, S. cerevisiae, CDRE-lacZ, luminescence, secondary (AID 2388); assay type: functional, cell-based;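 further: yeast reporter cells carrying a calcineurin-responsive lacZ construct stimulated with calcium chloride; luminescent beta-galactosidase reporter signal in whole cells rather than isolated phosphatase activity; potency for inhibition where a drop in reporter signal means calcineurin blockade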
T4 sequence (B9W6M3 whole entry): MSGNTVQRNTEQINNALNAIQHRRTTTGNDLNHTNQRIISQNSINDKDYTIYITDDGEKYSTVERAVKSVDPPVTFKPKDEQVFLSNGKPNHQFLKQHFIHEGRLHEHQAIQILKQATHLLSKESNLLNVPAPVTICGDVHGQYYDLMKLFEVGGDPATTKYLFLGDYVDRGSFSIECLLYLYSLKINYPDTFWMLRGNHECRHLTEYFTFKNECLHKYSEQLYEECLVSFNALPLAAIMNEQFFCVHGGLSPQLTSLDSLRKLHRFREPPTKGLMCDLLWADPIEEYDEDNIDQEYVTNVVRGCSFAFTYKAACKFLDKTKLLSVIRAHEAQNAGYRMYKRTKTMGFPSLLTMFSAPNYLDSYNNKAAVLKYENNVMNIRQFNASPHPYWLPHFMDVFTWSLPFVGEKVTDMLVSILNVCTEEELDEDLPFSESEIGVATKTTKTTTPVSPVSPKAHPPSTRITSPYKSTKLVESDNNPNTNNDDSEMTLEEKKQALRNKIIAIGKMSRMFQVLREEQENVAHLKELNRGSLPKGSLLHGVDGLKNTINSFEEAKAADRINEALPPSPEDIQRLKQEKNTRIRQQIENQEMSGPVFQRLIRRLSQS

[10] = NIH-3T3 fibroblast cytotoxicity, dose response, cytotoxicity control, cell-based, fluorescence, Alamar Blue, secondary assay (AID 2327); assay type: functional;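 further: NIH-3T3 mouse fibroblasts cultured with fluconazole at 8 µg/mL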
[11] = target: T5, Voltage-gated N-type calcium channel alpha-1B subunit/Amyloid beta A4 precursor protein-binding family A member 1 (Homo sapiens, UniProt Q00975+Q02410); assay type: protein assay
Escherichia coli [12] = assay: microbe, parasite or virus in culture
[13] = target: T5, Voltage-gated N-type calcium channel alpha-1B subunit/Amyloid beta A4 precursor protein-binding family A member 1; assay type: protein assay; remark: listed apart in the source
[14] = HEp-2 cell cytotoxicity, dose response, cytotoxicity control for RSV inhibitor project, HTS (AID 2410); assay type: functional; details: human respiratory syncytial virus
Vero [15] = assay: host cell cytotoxicity of antiviral hits, dose response, cytotoxicity control for West Nile virus antiviral project, secondary assay (AID 1650); assay type: functional; details: Chlorocebus sabaeus
[16] = Luminescence Cell-Based Dose Response HTS to Identify Inhibitors of 5'UTR Stem-Loop Driven Prion Protein mRNA Translation in H4 Neuroglioblastoma Cells. [Related pubchem assays: 1827 (Project Summary), 1813 (Primary HTS)]; assay type: functional
[17] = inhibitors of firefly luciferase expression or activity, dose response, H4 neuroglioma cells, luminescence (AID 1990); assay type: functional, cell-based
[18] = inhibitors of SNCA 5'UTR-driven reporter translation, confirmation, H4 neuroglioma cells, luminescence (AID 1988); assay type: functional, cell-based
Escherichia coli [19] = assay: microbe, parasite or virus in culture; remark: listed apart in the source

T5 sequence (Q00975 whole entry): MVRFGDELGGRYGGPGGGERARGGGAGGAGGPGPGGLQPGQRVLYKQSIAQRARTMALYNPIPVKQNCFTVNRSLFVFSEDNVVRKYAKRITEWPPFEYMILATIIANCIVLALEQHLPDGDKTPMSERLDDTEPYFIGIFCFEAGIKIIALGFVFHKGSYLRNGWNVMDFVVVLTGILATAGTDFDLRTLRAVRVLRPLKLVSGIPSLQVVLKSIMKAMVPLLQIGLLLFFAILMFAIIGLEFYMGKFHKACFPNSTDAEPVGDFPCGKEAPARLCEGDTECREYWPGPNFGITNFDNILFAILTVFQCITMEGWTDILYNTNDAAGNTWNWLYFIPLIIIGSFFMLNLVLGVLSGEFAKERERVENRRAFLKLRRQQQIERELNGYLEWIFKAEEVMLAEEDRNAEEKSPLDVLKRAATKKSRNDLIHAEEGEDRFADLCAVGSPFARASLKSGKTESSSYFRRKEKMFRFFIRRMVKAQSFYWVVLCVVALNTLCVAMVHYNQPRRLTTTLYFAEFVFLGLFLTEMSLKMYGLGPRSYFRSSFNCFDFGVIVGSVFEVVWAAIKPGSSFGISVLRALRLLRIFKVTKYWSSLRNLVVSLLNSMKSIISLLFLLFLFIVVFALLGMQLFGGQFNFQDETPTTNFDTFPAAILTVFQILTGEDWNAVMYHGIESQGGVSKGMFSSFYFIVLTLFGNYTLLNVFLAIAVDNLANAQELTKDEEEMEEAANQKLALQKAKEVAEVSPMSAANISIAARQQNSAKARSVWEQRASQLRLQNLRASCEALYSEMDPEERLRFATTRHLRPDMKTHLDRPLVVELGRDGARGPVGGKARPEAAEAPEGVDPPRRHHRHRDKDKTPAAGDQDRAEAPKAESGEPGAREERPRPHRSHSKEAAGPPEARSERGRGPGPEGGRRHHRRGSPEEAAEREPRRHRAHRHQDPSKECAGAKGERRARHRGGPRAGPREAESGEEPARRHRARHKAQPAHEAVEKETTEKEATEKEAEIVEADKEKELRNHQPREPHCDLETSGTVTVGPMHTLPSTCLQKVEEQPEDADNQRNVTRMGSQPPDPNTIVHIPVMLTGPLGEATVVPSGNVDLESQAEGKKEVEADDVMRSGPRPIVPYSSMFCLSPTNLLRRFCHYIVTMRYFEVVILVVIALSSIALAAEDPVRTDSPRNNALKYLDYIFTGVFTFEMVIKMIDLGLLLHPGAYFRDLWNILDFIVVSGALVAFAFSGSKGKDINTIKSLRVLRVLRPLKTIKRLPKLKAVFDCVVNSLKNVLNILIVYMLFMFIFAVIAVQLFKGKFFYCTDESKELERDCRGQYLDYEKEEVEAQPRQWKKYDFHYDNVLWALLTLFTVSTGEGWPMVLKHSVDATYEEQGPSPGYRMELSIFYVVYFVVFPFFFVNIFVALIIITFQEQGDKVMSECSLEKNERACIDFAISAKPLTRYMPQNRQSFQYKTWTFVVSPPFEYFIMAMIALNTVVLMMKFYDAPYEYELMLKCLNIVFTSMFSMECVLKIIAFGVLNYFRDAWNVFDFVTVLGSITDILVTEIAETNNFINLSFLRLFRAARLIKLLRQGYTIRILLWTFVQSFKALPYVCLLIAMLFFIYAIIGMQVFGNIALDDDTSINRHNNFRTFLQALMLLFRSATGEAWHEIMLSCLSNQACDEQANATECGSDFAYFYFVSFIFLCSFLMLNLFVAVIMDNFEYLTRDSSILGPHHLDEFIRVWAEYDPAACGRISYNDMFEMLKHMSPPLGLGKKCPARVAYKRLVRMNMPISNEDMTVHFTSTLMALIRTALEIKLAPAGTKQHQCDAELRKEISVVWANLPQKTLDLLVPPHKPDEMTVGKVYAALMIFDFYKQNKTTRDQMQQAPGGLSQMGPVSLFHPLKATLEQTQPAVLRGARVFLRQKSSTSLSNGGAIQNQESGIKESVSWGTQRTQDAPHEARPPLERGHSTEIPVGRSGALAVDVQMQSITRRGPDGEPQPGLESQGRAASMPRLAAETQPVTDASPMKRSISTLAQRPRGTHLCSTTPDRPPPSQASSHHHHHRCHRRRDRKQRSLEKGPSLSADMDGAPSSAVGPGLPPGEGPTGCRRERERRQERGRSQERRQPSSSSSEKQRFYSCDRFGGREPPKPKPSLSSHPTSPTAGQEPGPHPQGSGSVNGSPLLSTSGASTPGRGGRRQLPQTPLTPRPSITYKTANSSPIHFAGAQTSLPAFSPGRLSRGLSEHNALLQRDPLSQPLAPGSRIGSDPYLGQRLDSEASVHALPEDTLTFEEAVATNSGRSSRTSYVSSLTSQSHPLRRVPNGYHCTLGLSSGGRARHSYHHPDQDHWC
T5 sequence (Q02410 whole entry): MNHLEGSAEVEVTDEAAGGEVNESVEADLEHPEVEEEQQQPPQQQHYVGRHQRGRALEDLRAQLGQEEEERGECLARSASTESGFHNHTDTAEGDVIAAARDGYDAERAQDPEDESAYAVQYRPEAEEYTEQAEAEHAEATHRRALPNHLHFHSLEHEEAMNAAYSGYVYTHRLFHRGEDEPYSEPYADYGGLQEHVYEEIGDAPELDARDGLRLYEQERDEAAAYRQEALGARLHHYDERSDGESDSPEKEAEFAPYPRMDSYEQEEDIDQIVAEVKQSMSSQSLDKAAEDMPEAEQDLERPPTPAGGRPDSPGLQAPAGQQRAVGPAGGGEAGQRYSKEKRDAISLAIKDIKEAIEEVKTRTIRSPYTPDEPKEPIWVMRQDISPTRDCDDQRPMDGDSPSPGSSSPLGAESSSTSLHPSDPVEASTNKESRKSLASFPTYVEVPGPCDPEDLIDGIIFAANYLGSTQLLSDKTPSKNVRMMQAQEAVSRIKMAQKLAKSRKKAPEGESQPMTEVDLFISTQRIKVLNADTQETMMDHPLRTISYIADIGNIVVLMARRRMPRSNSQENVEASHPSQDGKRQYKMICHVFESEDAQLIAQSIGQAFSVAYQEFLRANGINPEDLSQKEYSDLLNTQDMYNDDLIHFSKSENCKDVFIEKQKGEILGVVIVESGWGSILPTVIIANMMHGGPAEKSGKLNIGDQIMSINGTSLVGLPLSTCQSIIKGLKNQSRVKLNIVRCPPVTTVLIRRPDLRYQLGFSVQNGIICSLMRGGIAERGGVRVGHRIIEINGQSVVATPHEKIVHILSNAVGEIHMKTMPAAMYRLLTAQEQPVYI
ATP-dependent molecular chaperone HSP82, sequence (C4YTQ8 whole entry): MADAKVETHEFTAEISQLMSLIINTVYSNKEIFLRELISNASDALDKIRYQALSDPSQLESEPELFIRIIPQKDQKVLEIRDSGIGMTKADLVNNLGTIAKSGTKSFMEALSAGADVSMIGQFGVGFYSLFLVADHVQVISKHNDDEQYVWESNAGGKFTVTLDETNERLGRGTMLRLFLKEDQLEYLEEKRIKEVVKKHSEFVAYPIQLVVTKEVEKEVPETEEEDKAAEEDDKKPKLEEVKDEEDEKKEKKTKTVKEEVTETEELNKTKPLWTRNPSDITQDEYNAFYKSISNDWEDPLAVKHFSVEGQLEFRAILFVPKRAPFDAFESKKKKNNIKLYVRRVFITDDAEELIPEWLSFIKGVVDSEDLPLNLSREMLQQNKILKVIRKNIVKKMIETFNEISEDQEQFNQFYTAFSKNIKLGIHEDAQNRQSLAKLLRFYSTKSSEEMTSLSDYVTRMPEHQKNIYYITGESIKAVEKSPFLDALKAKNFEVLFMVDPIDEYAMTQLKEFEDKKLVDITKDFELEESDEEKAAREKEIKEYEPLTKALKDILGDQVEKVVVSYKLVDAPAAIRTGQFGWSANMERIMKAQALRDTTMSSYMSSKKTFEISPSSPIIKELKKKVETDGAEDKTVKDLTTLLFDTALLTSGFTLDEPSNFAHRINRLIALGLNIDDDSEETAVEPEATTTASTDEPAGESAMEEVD
Glyceraldehyde-3-phosphate dehydrogenase, sequence (P04406 whole entry): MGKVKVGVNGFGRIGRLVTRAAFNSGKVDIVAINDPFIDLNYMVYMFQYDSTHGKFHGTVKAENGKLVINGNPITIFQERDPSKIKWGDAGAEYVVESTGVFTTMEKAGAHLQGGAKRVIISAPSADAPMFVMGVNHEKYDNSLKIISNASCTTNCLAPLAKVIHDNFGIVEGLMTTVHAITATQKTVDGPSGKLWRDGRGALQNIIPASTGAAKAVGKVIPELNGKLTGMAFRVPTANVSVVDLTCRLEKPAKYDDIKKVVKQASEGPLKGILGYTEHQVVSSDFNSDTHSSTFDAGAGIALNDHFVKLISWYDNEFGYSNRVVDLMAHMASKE
Cytochrome P450 3A4, sequence (P08684 whole entry): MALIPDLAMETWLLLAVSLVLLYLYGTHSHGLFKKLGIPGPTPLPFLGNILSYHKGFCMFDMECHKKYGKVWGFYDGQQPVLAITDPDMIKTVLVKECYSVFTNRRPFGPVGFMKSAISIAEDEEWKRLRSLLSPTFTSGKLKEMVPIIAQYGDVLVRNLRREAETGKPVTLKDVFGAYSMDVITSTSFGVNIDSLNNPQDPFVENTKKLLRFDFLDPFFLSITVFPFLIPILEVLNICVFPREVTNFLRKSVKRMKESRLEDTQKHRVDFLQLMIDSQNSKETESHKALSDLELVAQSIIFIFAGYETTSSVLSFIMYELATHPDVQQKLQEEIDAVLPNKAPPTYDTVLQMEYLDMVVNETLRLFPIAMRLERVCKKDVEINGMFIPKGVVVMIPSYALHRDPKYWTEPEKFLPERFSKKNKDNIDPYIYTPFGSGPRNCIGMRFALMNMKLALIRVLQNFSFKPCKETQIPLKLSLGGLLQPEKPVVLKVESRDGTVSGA

Compound: CCn1c(=O)n(Cc2ccccc2C)c(=O)n([C@@H](Cc2ccccc2)C(=O)O)c1=O
- IC50 [1]: > 100 µM (inactive)
- IC50 [2]: > 100 µM (not active)
- IC50 [3]: > 100 µM (not active)
- IC50 [4]: > 100 µM (inactive)

Compound: S=C1SCN(CCN2CCOCC2)CN1Cc1ccccc1
- IC50 (Vero [5]): > 25 µM (active)
- CC50 (Vero [6]): 24.4 µM (active)
- AC50 (Cytochrome P450 3A4): 28.2 µM (inconclusive)
- AC50 (Cytochrome P450 1A2): 6.31 µM (inconclusive)

Compound: C=CCN(CC=C)Cc1c(O)ccc2c(=O)c(-c3ccccc3)coc12
- EC50 [7]: < 0.03 µM (active)
- EC50 [8]: > 150 µM (inactive)
- EC50 [9]: > 180 µM (inactive)
- EC50 [10]: 131 µM (active)

Compound: O=C(O)CCc1ccc(-c2cccs2)o1
- IC50 [11]: 21.3 µM (active)
- AC50 (Escherichia coli [12]): > 380 µM (inactive)
- IC50 [13]: 3.13 µM (active)

Compound: O=S(=O)(c1cccs1)N1CCN(c2ccnc3cc(Cl)ccc23)CC1
- IC50 (Vero [5]): > 25 µM (active)
- CC50 [14]: 14.3 µM (active)
- CC50 (Vero [15]): 30 µM (active)
- EC50 [16]: 13.1 µM (active)
- EC50 [17]: 13.5 µM (active)
- EC50 [18]: > 120 µM (not active)
- CC50 (Vero [6]): 22 µM (active)

Compound: O=C(CSCc1ccc(Cl)cc1)Nc1ccc(-c2nnc(-c3ccccc3)o2)cc1
- AC50 (Escherichia coli [19]): 23.9 µM (active)
- AC50 (Escherichia coli [12]): 58.8 µM (active)
